Results on one compound are retold here after PMC11356571, “The Comparative Metabolism of a Novel Hepatocellular Carcinoma Therapeutic Agent, 2,3-Diamino-N-(4-(benzo[d]thiazol-2-yl)phenyl)propanamide, in Human and Animal Hepatocytes” (Metabolites, 2024).

Common to all, as to format: in vitro ADME
Holding throughout (conditions): cryopreserved hepatocytes

A short description of series [1]: Metabolic stability in dog hepatocytes. The protocol: (§1) Cryopreserved hepatocytes were carefully thawed in a 37 °C water bath for approximately 1 min, and transferred to a tube containing pre-warmed thawing medium. The supernatants were removed and the pellets were resuspended in KHB at a final cell density of 1 × 10^6 cells/mL, based on hemocytometer counting using trypan blue exclusion. A ETN101 solution was prepared by dissolving ETN101 in water at 4 mM and diluted by KHB at the concentration of 4 μM of ETN101. Sixty microliters each of hepatocyte suspensions and 4 μM of ETN101 were added in a 96-well plate and incubated for 0, 5, 15, 30, and 45 min at 37 °C in a CO2 incubator. All incubations were conducted in triplicates. Reactions were terminated by the addition of 120 μL of ice-cold acetonitrile and followed by vortex mixing. After centrifugation at 13,000 rpm for 8 min at 4 °C, 5 μL of internal standard (IS, camptothecin in acetonitrile at 780 ng/mL) was added to 60 μL of supernatant. A 2 μL aliquot was injected into the LC-MS/MS system. The reliability of the analysis was confirmed by incorporating three different levels of quality control samples at the beginning and end of each analytical batch. The disappearance rate (k) of ETN101 was calculated by determined peak area ratio of ETN101 to IS over incubation period. Subsequently, half-life (t1/2), intrinsic clearance (Clint), and intrinsic hepatic clearance (Clint,hep) of ETN101 in human and animal hepatocytes were calculated using the following equation [34]: t1/2(min)=ln2/−k(elimination slope) ClintμL/min/10^6 cells=ln2/t1/2×μL incubation/hepatocytes (10^6 cells) Clint,hepmL/min/kg=Clint/1000×A×10^6 cells/g liver×B g liver/kg body weight […]
(§2) For the metabolic stability assay, an LC-MS/MS system was employed, consisting of an Agilent 1260 series HPLC system (Agilent Technologies Inc., Santa Clara, CA, USA) coupled to an API 4000 mass spectrometer (AB SCIEX, Concord, Vaughan, ON, Canada) equipped with a turbo electrospray interface. […] ETN101 and IS were detected using multiple reaction monitoring (MRM) mode under positive electrospray ionization (ESI). […]

A short description of series [2]: Metabolic stability in human hepatocytes. The protocol:
as §1, §2

A short description of series [3]: Metabolic stability in monkey hepatocytes. The protocol:
as §1, §2

The nature of series [4]: Metabolic stability in mouse hepatocytes. The protocol:
as §1, §2

Usually half-life stands for how long it takes for the measured level to halve. As a reminder, the hepatocyte CLint is the capacity of the preparation to metabolise the compound, expressed as a volume cleared per time. One may read the CLint scaled as the rate of metabolic loss divided by the concentration.

For `NCC(N)C(=O)Nc1ccc(-c2nc3ccccc3s2)cc1` (stereo not drawn) [ETN101, 2,3-diamino-N-(4-(benzo[d]thiazol-2-yl)phenyl)propanamide], the half-life at 2 µM in series [1] (45 min incubation at 37 °C) was determined as 1.88 h; in series [2] (45 min incubation at 37 °C) it was 1.25 h; in series [3] (45 min incubation at 37 °C) it was 1.22 h; in series [4] (45 min incubation at 37 °C), 2.01 h. Also, the hepatocyte CLint at 2 µM in series [1] (45 min incubation at 37 °C) was determined as 12.3 µL/min/1e6 cells; in series [2] (45 min incubation at 37 °C), 18.5 µL/min/1e6 cells; in series [3] (45 min incubation at 37 °C), 19 µL/min/1e6 cells; in series [4] (45 min incubation at 37 °C) it was 11.5 µL/min/1e6 cells. Further, the CLint scaled at 2 µM in series [1] (scaled from Clint) turned out to be 84.6 mL/min/kg; in series [2] (scaled from Clint) it was 66.1 mL/min/kg; in series [3] (scaled from Clint), 45.7 mL/min/kg; in series [4] (scaled from Clint), 136 mL/min/kg.
